Source: patent US8940756B2, “Dihydronaphthyridines and related compounds useful as kinase inhibitors for the treatment of proliferative diseases” (Deciphera Pharmaceuticals, Inc., priority 2012, dated 2015)

What was measured:
GIST430 cells = experiment: GIST 430 Cell Proliferation Assay; assay type: cell-based; details: Homo sapiens, resazurin, 115 hours + 5 hours
Protocol: (§1) GIST48, GIST430, and GIST882 cells were obtained from J. Fletcher (Brigham and Women's Hospital, Boston, Mass.). GIST T1 cells were obtained from B. Rubin (Cleveland Clinic, Cleveland, Ohio) and Professor Takahiro Taguchi (Kochi Medical School, Nankoku, Kochi, Japan). Briefly, GIST48 and GIST 882 cells were grown in RPMI 1640 medium supplemented with 15% characterized fetal bovine serum (Invitrogen, Carlsbad, Calif.), 1 unit/mL penicillin G, 1 μg/ml streptomycin, and 0.29 mg/mL L-glutamine at 37° C., 5% CO2, and 95% humidity. GIST430 cells were grown in Ham's F10 medium supplemented with 15% characterized fetal bovine serum (Invitrogen, Carlsbad, Calif.), 30 mg/L bovine pituitary extract (BD Biosciences, San Jose, Calif.), 0.5% Mito+ serum extender (BD Biosciences, San Jose, Calif.), 1 unit/mL penicillin G, 1 μg/ml streptomycin, and 0.29 mg/mL L-glutamine at 37° C., 5% CO2, 95% humidity. GIST T1 cells were grown in DMEM medium supplemented with 10% characterized fetal bovine serum (Invitrogen, Carlsbad, Calif.), 1 unit/mL penicillin G, 1 ng/ml streptomycin, and 0.29 mg/mL L-glutamine at 37° C., 5% CO2, and 95% humidity.
A serial dilution of test compound was dispensed into a 384-well black clear bottom plate (Corning, Corning, N.Y.). Two thousand five-hundred cells were added per well in 50 μL complete growth medium. Plates were incubated for 115 hours at 37° C., 5% CO2, 95% humidity. At the end of the incubation period 10 μL of a 440 μM solution of resazurin (Sigma, St. Louis, Mo.) in PBS was added to each well and incubated for an additional 5 hours at 37° C., 5% CO2, 95% humidity. Plates were read on a Synergy2 reader (Biotek, Winooski, Vt.) using an excitation of 540 nm and an emission of 600 nm.

[1] = biological target: Phospho-KIT (Tyr719) in GIST430 cells (Homo sapiens, UniProt P10721); experiment: GIST430 KIT Western Blot; assay type: cell-based; details: 4 hours, read-out: pKIT suppression by western blot analysi GIST430
Phospho-KIT (Tyr719) in GIST430 cells, sequence (P10721 with tags, fused parts or gaps DEL560-576/V654A, form open): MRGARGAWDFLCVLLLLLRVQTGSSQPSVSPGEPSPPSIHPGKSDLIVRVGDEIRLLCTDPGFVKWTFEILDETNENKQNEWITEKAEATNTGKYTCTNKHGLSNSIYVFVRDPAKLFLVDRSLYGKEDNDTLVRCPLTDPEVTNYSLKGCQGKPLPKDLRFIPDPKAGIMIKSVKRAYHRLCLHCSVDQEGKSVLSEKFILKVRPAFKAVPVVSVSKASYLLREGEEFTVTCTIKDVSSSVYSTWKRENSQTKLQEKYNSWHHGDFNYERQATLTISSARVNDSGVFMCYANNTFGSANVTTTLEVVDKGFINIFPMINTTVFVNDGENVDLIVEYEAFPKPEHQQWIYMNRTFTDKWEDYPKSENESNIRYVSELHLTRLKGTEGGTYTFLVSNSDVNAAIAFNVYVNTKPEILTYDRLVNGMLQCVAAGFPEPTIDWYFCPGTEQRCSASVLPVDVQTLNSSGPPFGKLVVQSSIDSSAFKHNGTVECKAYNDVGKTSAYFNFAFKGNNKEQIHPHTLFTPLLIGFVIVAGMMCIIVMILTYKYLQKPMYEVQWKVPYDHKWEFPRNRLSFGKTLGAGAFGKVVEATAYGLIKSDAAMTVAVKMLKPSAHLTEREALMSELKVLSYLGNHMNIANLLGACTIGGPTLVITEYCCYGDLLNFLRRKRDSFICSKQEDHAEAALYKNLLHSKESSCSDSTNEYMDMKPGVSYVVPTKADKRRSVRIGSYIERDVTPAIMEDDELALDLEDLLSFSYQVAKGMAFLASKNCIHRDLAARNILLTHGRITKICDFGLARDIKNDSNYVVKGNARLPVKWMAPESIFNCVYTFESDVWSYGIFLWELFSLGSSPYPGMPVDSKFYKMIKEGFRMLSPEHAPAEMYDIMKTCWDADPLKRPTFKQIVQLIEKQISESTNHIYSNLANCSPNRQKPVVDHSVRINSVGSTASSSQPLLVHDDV

[2] = biological target: Phospho-KIT (Tyr719) in GIST48 cells (Homo sapiens, UniProt P10721); experiment: GIST48 KIT Western Blot; assay type: cell-based; details: 4 hours, read-out: pKIT suppression by western blot analysi GIST48
Phospho-KIT (Tyr719) in GIST48 cells, sequence (P10721 whole entry V560D/D820A, form open): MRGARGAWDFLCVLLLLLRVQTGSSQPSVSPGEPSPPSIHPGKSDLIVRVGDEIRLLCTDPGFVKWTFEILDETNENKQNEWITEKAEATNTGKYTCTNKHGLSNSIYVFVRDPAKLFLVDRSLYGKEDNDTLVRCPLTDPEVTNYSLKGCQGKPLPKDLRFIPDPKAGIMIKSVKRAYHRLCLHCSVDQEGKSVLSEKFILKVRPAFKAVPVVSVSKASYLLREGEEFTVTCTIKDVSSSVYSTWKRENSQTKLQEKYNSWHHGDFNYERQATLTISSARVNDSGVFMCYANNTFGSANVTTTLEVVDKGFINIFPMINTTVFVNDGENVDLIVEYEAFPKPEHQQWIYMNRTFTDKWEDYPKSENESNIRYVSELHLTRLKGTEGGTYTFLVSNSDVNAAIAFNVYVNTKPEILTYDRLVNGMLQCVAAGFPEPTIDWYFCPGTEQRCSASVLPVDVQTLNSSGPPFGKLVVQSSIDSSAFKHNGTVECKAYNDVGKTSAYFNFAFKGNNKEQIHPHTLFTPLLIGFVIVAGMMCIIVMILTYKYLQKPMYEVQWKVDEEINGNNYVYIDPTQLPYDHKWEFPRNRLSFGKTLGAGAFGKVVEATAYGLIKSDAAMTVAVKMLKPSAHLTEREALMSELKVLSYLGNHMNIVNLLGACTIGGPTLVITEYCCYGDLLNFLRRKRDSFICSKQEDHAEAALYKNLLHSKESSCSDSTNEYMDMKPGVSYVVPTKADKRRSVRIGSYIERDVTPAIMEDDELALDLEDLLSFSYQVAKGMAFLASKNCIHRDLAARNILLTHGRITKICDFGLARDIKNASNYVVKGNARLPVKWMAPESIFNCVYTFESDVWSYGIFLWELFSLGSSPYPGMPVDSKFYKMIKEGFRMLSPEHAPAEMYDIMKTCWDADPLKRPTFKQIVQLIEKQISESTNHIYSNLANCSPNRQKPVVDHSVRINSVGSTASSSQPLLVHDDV

[3] = biological target: T1, c-KIT V654A kinase (Seq ID no. 2) (Homo sapiens, UniProt P10721, V654A); experiment: c-KIT V654A Kinase Assay; assay type: biochemical; details: enzymatic assay, ATP 200 μM
T1 construct: V654A c-Kit (residues T544-V976 with N-terminal GST fusion, 47 nM); purchased deCODE Biostructures
T1 sequence (P10721 544-976 V654A): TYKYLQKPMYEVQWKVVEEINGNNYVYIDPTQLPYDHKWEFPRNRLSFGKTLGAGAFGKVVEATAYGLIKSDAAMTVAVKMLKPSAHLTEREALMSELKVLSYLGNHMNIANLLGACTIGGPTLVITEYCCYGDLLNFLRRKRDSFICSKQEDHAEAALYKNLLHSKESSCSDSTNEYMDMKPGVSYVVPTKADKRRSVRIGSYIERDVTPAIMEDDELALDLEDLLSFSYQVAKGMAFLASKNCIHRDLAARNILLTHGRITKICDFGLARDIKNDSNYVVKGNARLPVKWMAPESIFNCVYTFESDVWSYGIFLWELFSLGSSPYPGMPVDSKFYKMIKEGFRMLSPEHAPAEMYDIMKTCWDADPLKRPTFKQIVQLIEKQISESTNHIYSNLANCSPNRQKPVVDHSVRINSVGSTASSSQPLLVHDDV
Protocol: In this assay, the oxidation of NADH (measured by decrease in absorbance at 340 nm) was continuously monitored spectrophotometrically. […] The inhibition reaction was started by mixing serial diluted test compound with the above reaction mixture. The absorption at 340 nm was monitored continuously for 6 hours at 30° C. on Synergy 2 plate reader (BioTech).
The protein construct was prepared by deCODE Biostructures using procedures known in the art. The construct contains residues T544-V976 of cKit, an N-terminal tag, a GST-fusion sequence and a TEV cleavage site. This construct is identical to Seq ID no.

GIST T1 cells = experiment: GIST T1 Cell Proliferation Assay; assay type: cell-based; details: Homo sapiens, GISTT1, 72 h, resazurin, 68 hours + 4 hours
Protocol: as §1
A serial dilution of test compound was dispensed into a 384-well black clear bottom plate (Corning, Corning, N.Y.). […] Plates were read on a Synergy2 reader (Biotek, Winooski, Vt.) using an excitation of 540 nm and an emission of 600 nm.

[4] = biological target: T2, c-KIT D816H kinase (Seq ID no. 3) (Homo sapiens, UniProt P10721, D816H); experiment: c-KIT D816H Kinase Assay; assay type: biochemical; details: enzymatic assay, ATP 200 μM
T2 construct: GST (N); TEV cleavage site (N); purchased deCODE Biostructures
T2 sequence (P10721 544-976 D816H): as the sequence (P10721 544-976 V654A) above, with A111V, D273H counted along it
Protocol: In this assay, the oxidation of NADH (measured by decrease in absorbance at 340 nm) was continuously monitored spectrophotometrically. […] The inhibition reaction was started by mixing serial diluted test compound with the above reaction mixture. The absorption at 340 nm was monitored continuously for 6 hours at 30° C. on Synergy 2 plate reader (BioTech). […] The protein construct was prepared by deCODE Biostructures using procedures known in the art. The construct contains […] of cKit, an N-terminal tag, a GST-fusion sequence and a TEV cleavage site. This construct is identical to Seq ID no. 1 except for the D816H mutation.

[5] = biological target: T3, c-KIT T670I kinase (Seq ID no. 6) (Homo sapiens, UniProt P10721, T670I); experiment: c-KIT T670I Kinase Assay; assay type: biochemical; details: enzymatic assay, ATP 200 uM
T3 construct: GST (N); TEV cleavage site (N); purchased deCODE Biostructures
T3 sequence (P10721 544-976 T670I): as the sequence (P10721 544-976 V654A) above, with A111V, T127I counted along it

[6] = biological target: T4, c-KIT D816V kinase (Seq ID no. 4) (Homo sapiens, UniProt P10721, D816V); experiment: c-KIT D816V kinase Assay; assay type: biochemical; details: enzymatic assay, ATP 200 uM
T4 construct: D816V c-KIT (residues T544-V976 with N-terminal GST fusion, 16 nM); purchased deCODE Biostructures
T4 sequence (P10721 544-976 D816V): as the sequence (P10721 544-976 V654A) above, with A111V, D273V counted along it

[7] = biological target: T5, c-KIT kinase (Seq ID no. 1) (Homo sapiens, UniProt P10721); experiment: c-KIT Kinase Assay (pyruvate kinase/lactate dehydrogenase coupled); assay type: biochemical; details: enzymatic assay, ATP 200 μM; read-out: KIT (wt)
T5 construct: GST (N); TEV cleavage site (N); purchased deCODE Biostructures
T5 sequence (P10721 with tags, fused parts or gaps): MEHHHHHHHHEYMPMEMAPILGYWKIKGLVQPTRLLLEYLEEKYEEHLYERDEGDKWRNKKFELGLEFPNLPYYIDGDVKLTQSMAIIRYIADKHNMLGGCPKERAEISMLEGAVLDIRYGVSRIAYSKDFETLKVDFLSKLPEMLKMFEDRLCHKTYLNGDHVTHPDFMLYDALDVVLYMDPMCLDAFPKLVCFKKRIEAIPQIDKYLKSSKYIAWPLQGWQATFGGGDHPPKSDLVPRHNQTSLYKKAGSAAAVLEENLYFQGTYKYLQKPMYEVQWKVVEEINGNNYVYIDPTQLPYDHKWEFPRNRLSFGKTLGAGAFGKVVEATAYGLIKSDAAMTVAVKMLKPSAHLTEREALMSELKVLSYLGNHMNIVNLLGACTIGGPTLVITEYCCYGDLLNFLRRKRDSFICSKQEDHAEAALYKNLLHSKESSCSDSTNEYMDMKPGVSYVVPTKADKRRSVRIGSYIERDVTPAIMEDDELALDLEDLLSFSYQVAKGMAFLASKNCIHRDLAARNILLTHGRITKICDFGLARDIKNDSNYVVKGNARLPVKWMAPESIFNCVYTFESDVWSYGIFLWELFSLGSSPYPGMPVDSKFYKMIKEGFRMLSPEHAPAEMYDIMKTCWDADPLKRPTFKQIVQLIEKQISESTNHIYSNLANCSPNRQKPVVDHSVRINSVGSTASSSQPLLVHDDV

Row | IC50 [1] [nM] | IC50 [2] [nM] | IC50 [3] [nM] | IC50 [4] [nM] | IC50 [5] [nM] | IC50 [6] [nM] | IC50 [7] [nM] | Compound | IC50 (GIST430 cells) [nM] | IC50 (GIST T1 cells) [nM]
1 | 10 to 100 | > 1000 | – | – | – | – | – | CCn1c(=O)c(-c2cc(NC(=O)Nc3ccccc3F)c(F)cc2C)cc2cnc(NC)cc21 [Example 38, 1-(5-(1-ethyl-7-(methylamino)-2-oxo-1,2-dihydro-1,6-naphthyridin-3-yl)-2-fluoro-4-methylphenyl)-3-(2-fluorophenyl)urea] | 10 to 100 | –
2 | – | – | < 10 | 10 to 100 | 10 to 100 | 10 to 100 | < 10 | CCn1c(=O)c(-c2cc(NC(=O)Nc3ccccc3)c(F)cc2Cl)cc2cnc(NCCCN3CCOCC3)cc21 [Example 92, 1-(4-chloro-5-(1-ethyl-7-((3-morpholinopropyl)amino)-2-oxo-1,2-dihydro-1,6-naphthyridin-3-yl)-2-fluorophenyl)-3-phenylurea] | – | ≤ 10
